The values below come from US10173982B2, “Picolinamides as fungicides” (Dow AgroSciences LLC, priority 2016, dated 2019).

Where two headings read alike, the source gives them in different places.

One experiment relates to Puccinia triticina. As to the kind of experiment: Fungicidal activity: wheat brown rust (PUCCRT), percent disease control on wheat seedlings. In kind it is in vivo. Particulars: for pest or weed control at 100 ppm / pest or weed control at 121.5 g/ha: Puccinia triticina; for pest or weed control at 100 ppm / PUCCRT 3DC disease control rating / PUCCRT 1DP disease control rating: HV (high volume) activity at 100 ppm; for pest or weed control at 121.5 g/ha: LV (low volume) activity at 121.5 g/H. How it is done:
Technical grades of materials were dissolved in acetone, which were then mixed with nine volumes of water containing 110 ppm Triton X-100. The fungicide solutions were applied onto wheat seedlings using an automated booth sprayer to run-off. All sprayed plants were allowed to air dry prior to further handling. All fungicides were evaluated using the aforementioned method for their activity vs. all target diseases, unless stated otherwise. Wheat leaf blotch and brown rust activity were also evaluated using track spray applications, in which case the fungicides were formulated as EC formulations, containing 0.1% Trycol 5941 in the spray solutions. Wheat plants (variety Yuma) were grown from seed in a greenhouse in 50% mineral soil/50% soil-less Metro mix until the first leaf was fully emerged, with 7-10 seedlings per pot. These plants were inoculated with an aqueous spore suspension of Puccinia triticina either prior to or after fungicide treatments. After inoculation the plants were kept in a dark dew room at 22° C. with 100% relative humidity overnight to permit spores to germinate and infect the leaf. The plants were then transferred to a greenhouse set at 24° C. for disease to develop. Fungicide formulation, application and disease assessment followed the procedures as described in the Example A. Results of the evaluations are shown below in Table 4.

Another experiment relates to Zymoseptoria tritici. As to the kind of experiment: Fungicidal activity: leaf blotch of wheat (SEPTTR), percent disease control on wheat seedlings. The class given is in vivo. Particulars: for pest or weed control at 100 ppm / pest or weed control at 121.5 g/ha: Zymoseptoria tritici; for pest or weed control at 100 ppm / SEPTTR 1DP disease control rating / SEPTTR 3DC disease control rating: HV (high volume) activity at 100 ppm; for pest or weed control at 121.5 g/ha: LV (low volume) activity at 121.5 g/H. How it is done: Technical grades of materials were dissolved in acetone, which were then mixed with nine volumes of water containing 110 ppm Triton X-100. The fungicide solutions were applied onto wheat seedlings using an automated booth sprayer to run-off. All sprayed plants were allowed to air dry prior to further handling. All fungicides were evaluated using the aforementioned method for their activity vs. all target diseases, unless stated otherwise. Wheat leaf blotch and brown rust activity were also evaluated using track spray applications, in which case the fungicides were formulated as EC formulations, containing 0.1% Trycol 5941 in the spray solutions. Wheat plants (variety Yuma) were grown from seed in a greenhouse in 50% mineral soil/50% soil-less Metro mix until the first leaf was fully emerged, with 7-10 seedlings per pot. These plants were inoculated with an aqueous spore suspension of Zymoseptoria tritici either prior to or after fungicide treatments. After inoculation the plants were kept in 100% relative humidity (one day in a dark dew chamber followed by two to three days in a lighted dew chamber at 20° C.) to permit spores to germinate and infect the leaf. The plants were then transferred to a greenhouse set at 20° C. for disease to develop. When disease symptoms were fully expressed on the 1st leaves of untreated plants, infection levels were assessed on a scale of 0 to 100 percent disease severity. Percent disease control was calculated using the ratio of disease severity on treated plants relative to untreated plants.

The mark [1] stands for this setting: 24 h, 1 Day Protectant, read-out: PUCCRT 1DP disease control rating.
[2] abbreviates: 72 h, 3 Day Curative, read-out: PUCCRT 3DC disease control rating.
Where [3] appears, read: 24 h, 1 Day Protectant, read-out: SEPTTR 1DP disease control rating.
[4] abbreviates: 72 h, 3 Day Curative, read-out: SEPTTR 3DC disease control rating.

Regarding `COc1ccnc(C(=O)N[C@@H](C)C(=O)O[C@@H](C)[C@H](Sc2cccc(Cl)c2)c2ccccc2)c1O` [Compound 35], the pest or weed control at 100 ppm is greater than 80% in the experiment with Puccinia triticina (setting [1]), greater than 80% in the experiment with Puccinia triticina (setting [2]), no more than 80% in the experiment with Zymoseptoria tritici (setting [3]) and no more than 80% in the experiment on Zymoseptoria tritici (setting [4]).

For `COc1ccnc(C(=O)N[C@@H](C)C(=O)O[C@@H](C)[C@H](Sc2ccc(C)cc2)c2ccccc2)c1O` [Compound 36], the pest or weed control at 100 ppm in the experiment on Puccinia triticina (setting [1]) was greater than 80%; in the experiment on Puccinia triticina (setting [2]), greater than 80%; in the experiment on Zymoseptoria tritici (setting [3]), no more than 80%; with Zymoseptoria tritici (setting [4]), no more than 80%.

For `COc1ccnc(C(=O)N[C@@H](C)C(=O)O[C@@H](C)[C@H](Sc2ccc(F)cc2)c2ccccc2)c1O` [Compound 37], the pest or weed control at 100 ppm in the experiment on Puccinia triticina (setting [1]) was no more than 80%; in the experiment on Puccinia triticina (setting [2]), no more than 80%; with Zymoseptoria tritici (setting [3]) it was no more than 0%; in the experiment with Zymoseptoria tritici (setting [4]), no more than 80%.

As for `COc1ccnc(C(=O)N[C@@H](C)C(=O)O[C@@H](C)[C@H](Sc2ccc(F)cc2C)c2ccccc2)c1O` [Compound 38], in the experiment on Puccinia triticina (3 Day Curative), the “PUCCRT 3DC disease control rating” value is reported as “A (>80)”. The pest or weed control at 100 ppm in the experiment on Puccinia triticina (setting [1]), in the experiment with Zymoseptoria tritici (setting [3]) and in the experiment on Zymoseptoria tritici (setting [4]) was greater than 80% in each case.

With `COc1ccnc(C(=O)N[C@@H](C)C(=O)O[C@@H](C)[C@H](Sc2ccccc2)c2ccc(F)cc2)c1O` [Compound 39], the pest or weed control at 100 ppm in the experiment with Puccinia triticina (setting [1]), in the experiment on Puccinia triticina (setting [2]), in the experiment with Zymoseptoria tritici (setting [3]) and with Zymoseptoria tritici (setting [4]) was greater than 80% each time.

For the compound `CCc1cc(F)ccc1[C@@H](Sc1ccccc1)[C@H](C)OC(=O)[C@H](C)NC(=O)c1nccc(OC)c1O` [Compound 40], the “PUCCRT 3DC disease control rating” value in the experiment with Puccinia triticina (3 Day Curative) is “A (>80)”. Moreover, the pest or weed control at 100 ppm with Puccinia triticina (setting [1]), in the experiment on Zymoseptoria tritici (setting [3]) and with Zymoseptoria tritici (setting [4]) was greater than 80% throughout.

As to `COc1ccnc(C(=O)N[C@@H](C)C(=O)O[C@@H](C)[C@@H](c2ccccc2)S(=O)(=O)c2ccc(F)cc2)c1O` [Compound 41], the pest or weed control at 100 ppm is no more than 0% with Puccinia triticina (setting [1]), no more than 0% with Puccinia triticina (setting [2]), no more than 80% with Zymoseptoria tritici (setting [3]) and no more than 80% in the experiment with Zymoseptoria tritici (setting [4]).

`COc1ccnc(C(=O)N[C@@H](C)C(=O)O[C@@H](C)[C@@H](c2ccccc2)[S+]([O-])c2ccc(F)cc2)c1O` (some centres unmarked) [Compound 42]: the pest or weed control at 100 ppm is no more than 0% in the experiment on Puccinia triticina (setting [1]), no more than 0% in the experiment on Puccinia triticina (setting [2]), no more than 0% with Zymoseptoria tritici (setting [3]) and no more than 80% in the experiment on Zymoseptoria tritici (setting [4]).

Consider `COc1ccnc(C(=O)N[C@@H](C)C(=O)O[C@@H](C)[C@H](Sc2ccc(C)cc2C)c2ccccc2)c1O` [Compound 44], for which the pest or weed control at 100 ppm was greater than 80% with Puccinia triticina (setting [1]), no more than 80% in the experiment on Puccinia triticina (setting [2]), greater than 80% in the experiment on Zymoseptoria tritici (setting [3]) and no more than 80% with Zymoseptoria tritici (setting [4]).

As for `COc1ccnc(C(=O)N[C@@H](C)C(=O)O[C@@H](C)[C@H](SCc2ccccc2)c2ccccc2)c1O` [Compound 45], the pest or weed control at 100 ppm with Puccinia triticina (setting [1]) was no more than 80%; with Puccinia triticina (setting [2]), no more than 80%; with Zymoseptoria tritici (setting [3]), no more than 0%; in the experiment with Zymoseptoria tritici (setting [4]), no more than 80%.

As to `COc1ccnc(C(=O)N[C@@H](C)C(=O)O[C@@H](C)[C@H](SC(C)C)c2ccccc2)c1O` [Compound 46], the pest or weed control at 100 ppm was no more than 80% in the experiment on Puccinia triticina (setting [1]), no more than 80% in the experiment on Puccinia triticina (setting [2]), no more than 0% in the experiment with Zymoseptoria tritici (setting [3]) and greater than 80% with Zymoseptoria tritici (setting [4]).

As to `COc1ccnc(C(=O)N[C@@H](C)C(=O)O[C@@H](C)[C@H](SCC(C)C)c2ccccc2)c1O` [Compound 47], the pest or weed control at 100 ppm was no more than 80% with Puccinia triticina (setting [1]), no more than 80% in the experiment on Puccinia triticina (setting [2]), no more than 0% with Zymoseptoria tritici (setting [3]) and greater than 80% with Zymoseptoria tritici (setting [4]).

With `COc1ccnc(C(=O)N[C@@H](C)C(=O)O[C@@H](C)[C@@H](c2ccccc2)S(=O)(=O)Cc2ccccc2)c1O` [Compound 48], the pest or weed control at 100 ppm with Puccinia triticina (setting [1]) is no more than 0%; in the experiment on Puccinia triticina (setting [2]), no more than 0%; in the experiment with Zymoseptoria tritici (setting [3]), no more than 80%; in the experiment with Zymoseptoria tritici (setting [4]), no more than 80%.

On to `COc1ccnc(C(=O)N[C@@H](C)C(=O)O[C@@H](C)[C@H](Sc2ccc(F)cc2C)c2ccc(F)cc2C)c1O` [Compound 49], for which the pest or weed control at 100 ppm with Puccinia triticina (setting [1]) is greater than 80%; in the experiment with Puccinia triticina (setting [2]), no more than 80%; with Zymoseptoria tritici (setting [3]) it was greater than 80%; in the experiment on Zymoseptoria tritici (setting [4]), greater than 80%.

For the compound `COc1ccnc(C(=O)N[C@@H](C)C(=O)O[C@@H](C)[C@H](Sc2ccccc2)c2ccc(F)cc2C)c1O` [Compound 51], the pest or weed control at 100 ppm was greater than 80% in the experiment with Puccinia triticina (setting [1]), no more than 80% with Puccinia triticina (setting [2]), greater than 80% in the experiment with Zymoseptoria tritici (setting [3]) and greater than 80% in the experiment on Zymoseptoria tritici (setting [4]).

Turning to `COc1ccnc(C(=O)N[C@@H](C)C(=O)O[C@@H](C)[C@H](Sc2ccc(C(F)(F)F)cn2)c2ccccc2)c1O` [Compound 52], the pest or weed control at 100 ppm with Puccinia triticina (setting [1]) is no more than 80%; in the experiment with Puccinia triticina (setting [2]), no more than 80%; with Zymoseptoria tritici (setting [3]), no more than 0%; with Zymoseptoria tritici (setting [4]), no more than 80%.

Regarding `COc1ccnc(C(=O)N[C@@H](C)C(=O)O[C@@H](C)[C@H](Sc2ccccc2)c2ccc(C)cc2)c1O` [Compound 53], the pest or weed control at 100 ppm with Puccinia triticina (setting [1]), with Puccinia triticina (setting [2]), with Zymoseptoria tritici (setting [3]) and with Zymoseptoria tritici (setting [4]) was greater than 80% throughout.

Regarding `COc1ccnc(C(=O)N[C@@H](C)C(=O)O[C@@H](C)[C@H](Sc2ccccc2)c2ccccc2)c1O` [Compound 54], the pest or weed control at 100 ppm with Puccinia triticina (setting [1]) is greater than 80%; in the experiment on Puccinia triticina (setting [2]) it was no more than 80%; with Zymoseptoria tritici (setting [3]) it was no more than 80%; in the experiment on Zymoseptoria tritici (setting [4]), greater than 80%.

For `COc1ccnc(C(=O)N[C@@H](C)C(=O)O[C@@H](C)[C@H](Sc2ccc(F)cc2C)c2ccccc2)c1O` [Compound 55], the “PUCCRT 1DP disease control rating” value with Puccinia triticina (1 Day Protectant) is “A (>80)”. Also, in the experiment on Puccinia triticina (3 Day Curative), the “PUCCRT 3DC disease control rating” value was “D (≤0)”. Further, the “SEPTTR 1DP disease control rating” value in the experiment with Zymoseptoria tritici (1 Day Protectant) was “A (>80)”. In addition, in the experiment with Zymoseptoria tritici (3 Day Curative), the “SEPTTR 3DC disease control rating” value is listed as “B (≤80)”.

Turning to `CCc1cc(F)ccc1[C@@H](Sc1ccccc1)[C@H](C)OC(=O)[C@H](C)NC(=O)c1nccc(OC)c1O` [Compound 57], the “PUCCRT 1DP disease control rating” value in the experiment on Puccinia triticina (1 Day Protectant) is “A (>80)”. In addition, the “PUCCRT 3DC disease control rating” value with Puccinia triticina (3 Day Curative) is “D (≤0)”. Further, the “SEPTTR 1DP disease control rating” value with Zymoseptoria tritici (1 Day Protectant) was “B (≤80)”. Moreover, the “SEPTTR 3DC disease control rating” value in the experiment on Zymoseptoria tritici (3 Day Curative) is on record as “A (>80)”.

Regarding `CCc1cc(F)ccc1[C@@H](Sc1ccccc1)[C@H](C)OC(=O)[C@H](C)NC(=O)c1nccc(OC)c1OC(C)=O` [Compound 59], the pest or weed control at 121.5 g/ha in the experiment with Puccinia triticina (setting [1]) is greater than 80%; in the experiment with Puccinia triticina (setting [2]), no more than 80%; in the experiment with Zymoseptoria tritici (setting [3]) it was no more than 80%; in the experiment with Zymoseptoria tritici (setting [4]), no more than 80%.

As to `COc1ccnc(C(=O)N[C@@H](C)C(=O)O[C@@H](C)[C@H](Sc2ccc(F)cc2C)c2ccccc2)c1OC(C)=O` [Compound 60], the pest or weed control at 121.5 g/ha in the experiment on Puccinia triticina (setting [1]) is greater than 80%; in the experiment on Puccinia triticina (setting [2]), no more than 80%; in the experiment with Zymoseptoria tritici (setting [3]), greater than 80%; in the experiment on Zymoseptoria tritici (setting [4]) it was no more than 0%.

As for `COc1ccnc(C(=O)N[C@@H](C)C(=O)O[C@@H](C)[C@H](Sc2ccccc2)c2ccc(F)cc2)c1OC(C)=O` [Compound 61], the pest or weed control at 121.5 g/ha with Puccinia triticina (setting [1]) is greater than 80%; in the experiment with Puccinia triticina (setting [2]), no more than 80%; with Zymoseptoria tritici (setting [3]), no more than 80%; in the experiment with Zymoseptoria tritici (setting [4]), no more than 0%.
